# Source: patent US20240083846A1, “SMAC MIMETICS FOR TREATMENT OF CANCER, PROCESS FOR PREPARATION AND PHARMACEUTICAL COMPOSITION THEREOF” (COUNCIL OF SCIENTIFIC & INDUSTRIAL RESEARCH, priority 2020, published 2024)
# Legend:
# XIAP BIR2 protein = XIAP BIR2 protein (Homo sapiens, UniProt P98170); experiment: Fluorescence polarization competition binding assay, XIAP BIR2; details: displacement of AVPIAQK(FAM)-OH, fluorescence polarization; read-out: Target Binding BIR2 Ki
# Description: The SMAC mimetics 1-9 were tested for their ability to displace the fluorescent labeled peptide AVPIAQK(FAM)-OH from XIAP BIR2 or XIAP BIR3 protein. The dose dependent binding experiment were then carried out by sequentially increasing the concentration of SMAC mimetic compounds at constant concentration of fluorescent labeled peptide and XIAP BIR2 or XIAP BIR3 protein. IC5- values were determined from the plot draw by prism software using nonlinear least-squares analysis. The Ki values of the SMAC mimetics were calculated which was based upon the measured IC50 values, the Kd value between tracer AVPIAQK(FAM)-OH and XIAP BIR2 or XIAP BIR3 complex, and the concentrations of the protein and tracer in the competition assay by using the web based program which are freely accessed at http://sw16.im.med.umich.edu/software/calc_ki/.In-silico.
# Binding isotherms were plotted between FP reading versus log values of protein concentration in nM. The data was analysed using GraphPad prism and Kd values were determined using Boltzmann-sigmoidal non-linear regression curve fitting.
# SW 620 cells = experiment: SRB cytotoxicity assay, SW 620; type: cell-based; details: Homo sapiens, SW-620
# Description: (§1) In vitro cytotoxic activities of different compounds were assessed by using standard SRB assay in different cells. The absorbance of the treated and untreated cells was measured on a multi-well scanning spectrophotometer (Epoch Microplate Reader, Biotek, USA) at a wavelength of 510 nm. Percent growth inhibition was calculated by using the formula […].
# HT29 cells = experiment: SRB cytotoxicity assay, HT29; type: cell-based; details: Homo sapiens, HT-29
# Description: as §1
# HCT 116 cells = experiment: SRB cytotoxicity assay, HCT 116; type: cell-based; details: Homo sapiens, HCT-116
# Description: as §1
# [1] = SRB cytotoxicity assay, VERO; type: cell-based, monkey; details: monkey, VERO cells; 10 μM, 48 hours, SRB assay; read-out: In vitro cytotoxicity at 10 μM dose, VERO (percent growth inhibition)
# Description: as §1
# VERO cells = experiment: SRB cytotoxicity assay, VERO; type: cell-based, monkey
# Description: as §1
# MDAMB231 cells = experiment: SRB cytotoxicity assay, MDAMB231; type: cell-based; details: Homo sapiens, MDA-MB-231, Breast
# Description: as §1
# (§2) SMAC mimetics promotes tumor cell selective cytotoxic effects. SW 620, HT 29, HCT 116 and VERO cells were treated with series of Smac mimetics at 10 μM dose for 48 hours and cytotoxicity was measured by SRB assay. As C6 had shown robust in-vitro cytotoxic effect against tumor cells but not to VERO cells, we determined IC50 value of C6 against different types of cancer cell lines. ICso values are represented in Table 2.
# MCF-7 cells = experiment: SRB cytotoxicity assay, MCF-7; type: cell-based; details: Homo sapiens, MCF7, Breast
# Description: as §1, §2
# 4T1 cells = experiment: SRB cytotoxicity assay, 4T1; type: cell-based; details: Breast (Mouse)
# Description: as §1, §2
# SK-OV-3 cells = experiment: SRB cytotoxicity assay, SK-OV-3; type: cell-based; details: Homo sapiens, Ovary
# Description: as §1, §2
# HEP-G2 cells = experiment: SRB cytotoxicity assay, HEP-G2; type: cell-based; details: Homo sapiens, HepG2, Liver
# Description: as §1, §2
# U937 cells = experiment: SRB cytotoxicity assay, U937; type: cell-based; details: Homo sapiens, U-937, Lymphoma
# Description: as §1, §2
# HCT-116 xenograft = HCT-116 xenograft model; type: in vivo, nude Crl: CD1-Foxnlnu mice; details: vs control
# Text: All the animals were maintained in a pathogen-free facility under a day—night cycle.
# [2] = tested on: XIAP and cIAP1 protein expression; experiment: Immunoblots from tumor tissues (in vivo target engagement); design: species or system mice; details: vs vehicle treated tumors
# Description: Mice were randomly assigned to groups by a blinded independent investigator. Throughout the study, the tumor was measured with an electronic digital caliper at a regular interval, and the tumor volume was calculated using standard formula V=Π/6×a2×b, where ‘a’ is the short and ‘b’ is the long tumor axis. At the end of the experiment, mice were sacrificed, and subcutaneous tumors were dissected for further studies. Parts of harvested tumors were minced into small pieces with sterile forceps and scissors and homogenized for lysate preparation.
# [3] = Organ distribution analysis; type: in vivo, mice; details: FIG. 9 right panel
# [4] = tested on: TRAIL mediated tumor cell cytotoxic response; experiment: Combination cytotoxicity with DR5 ligand TRAIL; type: cell-based; details: in vitro, FIG. 4
# cancer cells = experiment: Colony formation assay; type: cell-based; details: FIG. 5
# Description: The clonogenic colony formation assay was done on single-cell suspension. Briefly, cells were plated in complete McCoy's medium into 12-well plates and 24 hours later, were treated with different agents at different doses either alone or in combination. The cells were cultured for two weeks with renewing the media every 3rd day. The plates were washed with PBS and fixed with ice-cold methanol followed by staining with 0.5% crystal violet in methanol for 30 min. Excess stain was removed by washing with water thoroughly and plates were allowed to dry. Representative images were captured in the gel documentation system (Bio-Rad chemidoc XRS plus) while ImageJ software (NIH) was used for analysis and quantification to monitor single cell colony formation efficiency under the different treatment combinations.
# cancer cell lines = experiment: Cytotoxic potential against cancer cell lines (overall statement); type: cell-based; details: all cancer cells tested
# Description: as §1, §2
# [5] = Pharmacokinetics of C6 in mice (IV, SC, oral)
# Description: SIF, SGF and other stability studies were performed by following standard protocol. […] Mice were administered their respective doses according to body weight by intravenous (lateral vein), Subcutaneous route and Oral respectively. Blood samples were collected at 0.083, 0.25, 0.5, 0.75, 1, 2, 4, 8, 12, 24 and 48 hours. Plasma was separated and processed for analysis. For pharmacokinetic analysis, plasma concentration versus time data were plotted and analyzed by non-compartmental analysis method using WinNonlin (Pharsight, Mountain View, CA) software.
# XIAP BIR2 protein, sequence (P98170 124-240 limits assumed): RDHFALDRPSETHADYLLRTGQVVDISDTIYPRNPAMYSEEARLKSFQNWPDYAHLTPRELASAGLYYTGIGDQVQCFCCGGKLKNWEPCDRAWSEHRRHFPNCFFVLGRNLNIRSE
compound,measurement,setting,value
"CC[C@H](C)[C@H](NC(=O)[C@@H]1CC[C@H](c2ccc(C)o2)N1C(=O)[C@@H](NC(=O)[C@H](C)NC)C(C)C)C(=O)NC(c1ccccc1)c1ccccc1 [Compound 6, (2S,5R)-N-((2S,3S)-1-(benzhydrylamino)-3-methyl-1-oxopentan-2-yl)-1-((S)-3-methyl-2-((S)-2-(methylamino)propanamido)butanoyl)-5-(5-methylfuran-2-yl)pyrrolidine-2-carboxamide]",Ki,XIAP BIR2 protein,3.21 µM
same,inhibition at 10 µM,"SW 620 cells; 10 μM, 48 hours, SRB assay, read-out: In vitro cytotoxicity at 10 μM dose, SW 620 (percent growth inhibition)",59.27 ± 0.1%
same,IC50,"SW 620 cells; Colon, SW620",4.31 µM
same,inhibition at 10 µM,"HT29 cells; 10 μM, 48 hours, SRB assay, read-out: In vitro cytotoxicity at 10 μM dose, HT29 (percent growth inhibition)",65 ± 3.6%
same,IC50,"HT29 cells; Colon, HT29",6.66 µM
same,inhibition at 10 µM,"HCT 116 cells; 10 μM, 48 hours, SRB assay, read-out: In vitro cytotoxicity at 10 μM dose, HCT 116 (percent growth inhibition)",61.3 ± 2.9%
same,IC50,"HCT 116 cells; Colon, HCT116",8.93 µM
same,"inhibition at 48 h, 10 μM",[1],18.4 ± 2.1%
same,IC50,"VERO cells; Primates, Kidney (monkey), VERO",> 10 µM
same,Toxicity against VERO cells (in words),VERO cells; non-human VERO cells,limited or minimal toxicity
same,IC50,MDAMB231 cells,4.15 µM
same,IC50,MCF-7 cells,5.02 µM
same,IC50,4T1 cells,4.17 µM
same,IC50,SK-OV-3 cells,3.91 µM
same,IC50,HEP-G2 cells,7.3 µM
same,IC50,U937 cells,8.98 µM
same,Xenograft tumor volume,HCT-116 xenograft; oral administration,markedly reduced
same,Xenograft tumor weight,HCT-116 xenograft; oral administration,markedly reduced
same,Xenograft tumor volume,HCT-116 xenograft; subcutaneous administration,markedly reduced
same,Xenograft tumor weight,HCT-116 xenograft; subcutaneous administration,markedly reduced
same,XIAP and cIAP1 protein expression in tumors,[2],reduced XIAP and cIAP1 protein expression
same,Presence in tumor tissues,[3],presence of C6 in tumor tissues in significant quantity
same,Sensitization of TRAIL mediated tumor cell cytotoxic response,[4],robustly sensitizes
same,Colony formation in XIAP overexpressed and DR5 knock down cells,cancer cells; XIAP overexpressed and DR5 knock down cells,significant resistant of C6 mediated apoptotic cell death
same,Colony formation: effect of Pan caspase inhibitor Z-VAD-FMK on C6 cytotoxic phenotype,cancer cells; with Z-VAD-FMK,markedly rescues cytotoxic phenotype of C6
same,Cytotoxic activity against cancer cells (in words),cancer cell lines,potent cytotoxic activity
same,C1,"[5]; mice, IV route, 4 mg/kg",17 ± 4 mL/min/kg
same,C1,"[5]; mice, Oral route, 30 mg/kg",29.8 ± 5.33 mL/min/kg
same,Vd,"[5]; mice, Oral route, 30 mg/kg",9.52 ± 3.75 L/kg
same,C1,"[5]; mice, SC route, 30 mg/kg",29.2 ± 4 mL/min/kg
same,Vd,"[5]; mice, SC route, 30 mg/kg",5.32 ± 0.98 L/kg
same,AUC(0-inf),"[5]; mouse, plasma, iv, 4 mg/kg",4110 ± 852 ng·h/mL
same,Cmax,"[5]; mouse, plasma, iv, 4 mg/kg",10200 ± 2630 ng/mL
same,MRT,"[5]; mouse, plasma, iv, 4 mg/kg",1.72 ± 0.46 h
same,Tmax,"[5]; mouse, plasma, iv, 4 mg/kg",0.08 h
same,Vd,"[5]; mouse, plasma, iv, 4 mg/kg",0.28 ± 0.12 L/kg
same,bioavailability,"[5]; mouse, plasma, oral, 30 mg/kg",55.9 ± 11.2%
same,AUC(0-inf),"[5]; mouse, plasma, po, 30 mg/kg",17200 ± 3430 ng·h/mL
same,Cmax,"[5]; mouse, plasma, po, 30 mg/kg",4490 ± 1510 ng/mL
same,MRT,"[5]; mouse, plasma, po, 30 mg/kg",4.18 ± 1.81 h
same,Tmax,"[5]; mouse, plasma, po, 30 mg/kg",1.08 ± 0.47 h
same,AUC(0-inf),"[5]; mouse, plasma, sc, 30 mg/kg",17400 ± 2220 ng·h/mL
same,Cmax,"[5]; mouse, plasma, sc, 30 mg/kg",5020 ± 854 ng/mL
same,MRT,"[5]; mouse, plasma, sc, 30 mg/kg",8.92 ± 1.35 h
same,Tmax,"[5]; mouse, plasma, sc, 30 mg/kg",0.88 ± 0.21 h
same,bioavailability,"[5]; mouse, plasma, subcutaneous, 30 mg/kg",56.6 ± 7.21%
